Data set [1] in a line: Cyclic voltammetry / linear sweep voltammetry, electrochemical parameters. In kind it is physicochemical. Particulars: for E^0′ apparent standard redox potential / E1/2 half-wave potential: 5 mM, pH 14, 1 M KOH; for E1/2 half-wave potential: RDE; for k^0′O × 10^−2 apparent heterogeneous rate constant: Gileadi's equation; for DO × 10^−6 diffusion coefficient: Randles-Sevcik; for Peak-to-peak separation ΔEp: 100 mV/s, third cycle. The protocol:
Cyclic voltammetry experiments were performed at a 100 mV/s scan rate for compounds M3CH, D3CH, D4CH, M3SH, D3SH, M4SH and D4SH in solution at pH 13 (KOH 0.1 M) or pH 14 (KOH 1 M).
The electrochemical experiments were conducted on an electrochemical working station (BioLogic Science Instruments VSP) at 25° C. using a three-electrodes electrochemical cell, where a Pt wire was employed at the counter electrode (CE), an Ag/AgCl/KCl saturated electrode immerged in a 1 M KOH solution protected from the cell by a porous frit glass served as the reference electrode (RE) and a rotating disc electrode (RDE) mounted with a glassy carbon (GC, 7.069 mm^2) disk was used as the working electrode (WE), respectively. The potential was reported relative to the normal hydrogen electrode (NHE), which was converted from the Ag/AgCl reference electrode (0.230 V versus NHE). The ohmic drop between the WE and RE is determined by current interrupt experiments and leads to a value close to 0.7069 Ω·cm^2. All cyclic voltammetry experiments were conducted by alleviating most of this resistance (85%) using the potentiostat manual ohmic drop compensation. Before each electrochemical measurement, the GC disk electrode was polished using SiC P4000 foil.
Each recorded cyclic voltammetry of the reduction and the oxidation process of a compound at a given scan rate is analyzed by measuring ip,a=anodic peak current; ip,c=cathodic peak current; v=scan rate; Ep,a=anodic peak potential; Ep,c=cathodic peak potential; ΔEp=Ep,a−Ep,c; the apparent standard redox potential E^0′=[…].
Linear sweep voltammetry (LSV) using the RDE at various rotation speed (400 up to 1 000 RPM) were performed to determine the averaged half-wave potential E1/2.
The oxidation (DO) and the reduction (DR) diffusion coefficients were calculated using Randles-Sevcik (RS) equation ip=0.4463·n^3/2·F^3/2·A·C·v^1/2·D^1/2·R^−1/2·T^−1/2=Cye·v^1/2·D^1/2, n=number of electrons exchanged during the redox process; F=faradaic number=96485 C·mol^−1; A=electrode active surface; C=redox active molecule concentration; R=gas constant=8.314 J·K^−1·mol^−1; T=bulk temperature=299 K. The experiments are conducted by cyclic voltammetry at various scan rates ranging from 10 mV/s up to 20 V/s.
A graphic of lip,al and lip,cl=f(Cte×v^1/2) is plotted, if the redox process is reversible and diffusion controlled, the peak current should be proportional to the square root of the scan rate. The diffusion coefficients (oxidation and reduction) are then calculated by taking the square of the regression lines slopes. Diffusion coefficients (oxidation and reduction processes) are evaluated by plotting the peak current versus a constant multiplied by the square root of the scan rate. The plots regression line gives a straight line with perfect correlation coefficient (100%) confirming that the redox process is reversible and diffusion controlled. The square of each slope gives the associated coefficient diffusion in cm^2 s^−1.
The apparent heterogeneous rate constant during oxidation (k^0′O)/and reduction (k^0′R) process was calculated using Gileadi's equation (C. Rüssel, W. Jaenicke, Electrochimica Acta, Vol 27, N° 12, 1745-1750, 1982) log k^0′=−0.48α+0.52 +log[(nFαvcD)/(2.303RT)]^1/2; vc is the critical scan rate, it is calculated by plotting the peak potentials versus the logarithm of the scan rates, and is more precise when a very wide range of scan rates is used, which is the case here (0.010 up to 20 V·s^−1), it is determined at the x-axis of the point of intersection of the regression lines drawn at low and high scan rates; a is the transfer coefficient that is supposed to be close to 0.5 for all presented compounds.
Peak-to-peak separation ΔEp values were determined from the third cycle of each cyclic voltammogram (FIGS. 1 and 2) and are gathered in the following table 4.
The standard redox process reversibility evaluation is performed in diluted state, at 5 mM of concentration, at pH 14 buffered with 1 M of KOH. […]

The format of data set [2] is physicochemical. Particulars: pH 13.5. As to the method:
Post-cycling analyses were carried out using ^1H NMR spectroscopy electrolytes. […] Taking into account the electrolyte-membrane contact time during this cycling test and the NMR spectroscopy resolution, the permeability coefficient of compound D4CH can be estimated below 10^−12 cm^2/s or less than 1% capacity loss per year of electrolyte-membrane contact.
Post-cycling analyses were carried out using ^1H NMR spectroscopy electrolytes. […] Taking into account the electrolyte-membrane contact time during this cycling test and the NMR spectroscopy resolution, the permeability coefficient of compound M4SH can be estimated below 10^−12 cm^2/s or less than 1% capacity loss per year of electrolyte-membrane contact.

A short description of data set [3]: Degradation study by 1H NMR of electrolyte heated at 40° C. In kind it is physicochemical. As to the method:
This study consists of NMR ^1H measurements of an electrolyte heated at 40° C. and kept under stirring at 300 RPM using a magnetic stirrer.
Such behavior was detailed in the literature (WO 2019/157437) and is characteristic of a nucleophilic attack i.e. of OH^− in strong alkaline environment causing the functionalized arm to be cleaved.

Data set [4] can be described thus: Cycling tests of redox flow battery cells in galvanostatic mode. As to conditions: Test 1: 0.5 M M3CH, pH 13.0.
Method: General procedure: Cell tests were carried out on a BCS-815 battery cycler (Biologic) at room temperature. The redox flow battery cell was composed of an Aquivion® membrane (E98-09S Solvay) with an 80 μm thickness serving as separator sandwiched between two GFD porous graphite felts (SGL Carbon group, GFD 4.6 EA), 4.6 mm thick with an active area of 5 or 25 cm^2. The electrodes were inserted into 3 mm PVC frames surrounded by EPDM gaskets. The current collectors were made of graphite composite material provided by SGL and the assembly was compressed by two PVC end-plates. […]
Capacity utilization was calculated by determining the ratio of the discharge capacity to the theoretical capacity available in the electrolytes. Coulombic efficiency was calculated by determining the ratio of the discharge capacity to the charge capacity. Energy efficiency was calculated by determining the ratio of the discharge energy to the charge energy. The energy density was calculated by determining the ratio of the discharge energy to the total volume of posolyte (positive electrolyte) and negolyte (negative electrolyte). […]
At the end of charge, a rest of 24 hours at ocv was added before each discharge, allowing to quantify the self-discharge of this system in conditions close to its future application.
Data set [5] can be described thus: Solubility in aqueous solution at various pH by shake-flask method. Particulars: thermodynamic from solid.
Method: An aqueous solution (containing either KCl 1M, KOH 1M or H2SO4 1M) is added over 100 mg of compound by 20 μL portions until complete solubilization. We obtain an approximate range of solubility values calculated as following:
Smax˜(m/M)/V; m=mass of evaluated compound (g); M=molar mass of evaluated compound (g·mol^−1); V=added volume (L).
The nature of data set [6]: Cycling tests of redox flow battery cells in constant power cycling mode. As to conditions: extrapolated from 5 days; flowrate 0.5 mL/min/cm^2; negolyte 120/120/40/370 mL.

Values after ≈ are worked out from the molar mass of the structure shown.

Regarding `O=C1c2ccccc2C(=O)c2c(OCCCCS(=O)(=O)O)ccc(O)c21` [Compound M4SH], the “Solubility, solution at pH 14 (KOH 1M)” value is given as 0.46 M. Moreover, in data set [1], the “E^0′ apparent standard redox potential” value was −0.494 V vs NHE, the E1/2 half-wave potential is listed as −0.494 V vs NHE, the “k^0′O × 10^−2 apparent heterogeneous rate constant” value is recorded as 3.1 × 10^−2 cm/s and the “DO × 10^−6 diffusion coefficient” value is listed as 5.8 × 10^−6 cm^2/s. Besides, the “Peak-to-peak separation ΔEp” value in data set [1] (pH 13 (KOH 0.1 M)) is given as 97 mV. Also, in data set [1] (pH 14 (KOH 1 M)), the “Peak-to-peak separation ΔEp” value came out at 39 mV. In data set [2], the “compound degradation in negolyte after cycling” value is “no traces of compound M4SH degradation were visible”.
By solubility is commonly meant the concentration that dissolves in the medium under given conditions. Regarding `O=C(O)CCCOc1ccc(O)c2c1C(=O)c1ccccc1C2=O` [Compound M3CH], in data set [1], the “E^0′ apparent standard redox potential” value is −0.484 V vs NHE, the E1/2 half-wave potential is reported as −0.484 V vs NHE, the “k^0′O × 10^−2 apparent heterogeneous rate constant” value was 2.3 × 10^−2 cm/s and the “DO × 10^−6 diffusion coefficient” value is given as 5.2 × 10^−6 cm^2/s. In data set [1] (pH 13 (KOH 0.1 M)), the “Peak-to-peak separation ΔEp” value is on record as 140 mV. Also, in data set [1] (pH 14 (KOH 1 M)), the “Peak-to-peak separation ΔEp” value was 31 mV. Besides, the degradation rate entry in data set [3] (0.05 M, pH 13.9, 40° C.) is “roughly 15 % per month”. Moreover, the “degradation after a month” value in data set [3] (0.4 M, pH 13.5, 0.8 M KOH, 0.3 M NaOH, 40° C.) is listed as “did not undergo any degradation”. Also, in data set [4], the solubility over state-of-charge entry is “soluble at every state-of-charge”. In data set [5] (aqueous H2SO4 1M solution, pH 0, aqueous buffer), this compound returned a solubility of 310 mM (≈ 101 mg/mL). In data set [5] (aqueous KOH 1M solution, pH 14, aqueous buffer), this compound registered a solubility of 530 mM (≈ 173 mg/mL). Further, in data set [6], the “Stability in cycles (−20%)” value is 28449 cycles and the “Stability in days (−20%)” value is 10942.1 days.
`O=C(O)CCCCOc1ccc(OCCCCC(=O)O)c2c1C(=O)c1ccccc1C2=O` [Compound D4CH]: the “Solubility, solution at pH 14 (KOH 1M)” value is on record as 0.46 M. Besides, the “Peak-to-peak separation ΔEp” value in data set [1] (pH 13 (KOH 0.1 M)) was found to be 328 mV. Besides, the “Peak-to-peak separation ΔEp” value in data set [1] (pH 14 (KOH 1 M)) worked out at 32 mV. For the same compound, the “compound degradation in negolyte after cycling” value in data set [2] is recorded as “No traces of compound D4CH degradation were visible”. Besides, the “Solubility, solution at pH 0 (H2SO4 1M)” value (pH 0) is on record as 0.00 M.

The values are drawn from patent US12438175B2, “Aqueous organic-based electrolyte for redox flow battery” (KEMIWATT, priority 2019, dated 2025).
